Test results reported in patent publication US20240245677A1, “SELECTED COMPOUNDS FOR TARGETED DEGRADATION OF BRD9” (C4 THERAPEUTICS, INC., priority 2021, published 2024).
Values belong to the compound of their own block, whether it stands above or below them.

Columns and labels:
BRD9 = molecular target: T1, BRD9 (Homo sapiens, UniProt Q9H8M2); test: BRD9 HiBiT degradation assay in 293T.166 (HEK293T.166) cells; assay type: cell-based; design: endogenously expressing BRD9 with HiBiT fusion tag via CRISPR; host or cells: HEK293T.166 (293T.166, BRD9-HiBiT HEK293, LgBiT by lentivirus); details: for DC50: 2.0 hours, read-out: HiBiT-Degradation 293T.166 BRD9 2.0 hours (DC50)
T1 sequence (Q9H8M2 1-597): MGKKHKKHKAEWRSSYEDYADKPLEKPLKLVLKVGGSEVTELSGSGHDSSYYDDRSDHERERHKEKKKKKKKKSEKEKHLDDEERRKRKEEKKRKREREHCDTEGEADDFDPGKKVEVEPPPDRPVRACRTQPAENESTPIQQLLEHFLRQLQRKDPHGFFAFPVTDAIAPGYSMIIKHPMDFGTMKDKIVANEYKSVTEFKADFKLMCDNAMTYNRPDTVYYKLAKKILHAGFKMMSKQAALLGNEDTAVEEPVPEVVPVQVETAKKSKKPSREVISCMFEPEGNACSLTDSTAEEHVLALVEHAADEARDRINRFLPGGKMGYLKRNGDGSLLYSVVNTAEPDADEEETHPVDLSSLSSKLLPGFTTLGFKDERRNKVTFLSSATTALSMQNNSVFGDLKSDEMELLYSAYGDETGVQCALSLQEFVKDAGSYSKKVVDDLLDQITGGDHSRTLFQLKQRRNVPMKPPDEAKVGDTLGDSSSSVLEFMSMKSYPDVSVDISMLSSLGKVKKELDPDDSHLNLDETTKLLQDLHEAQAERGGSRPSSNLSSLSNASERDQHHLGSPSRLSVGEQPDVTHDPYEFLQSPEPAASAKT
Method: Selected compounds were tested in a BRD9 degradation assay using the HiBit Method.
Dulbecco's modified Eagle medium (DMEM) without phenol red and fetal bovine serum (FBS) were purchased from Gibco (Grand Island, NY, USA). Nano-Glo® HiBiT Lytic Assay System was purchased from Promega (Madison, WI, USA). 293T.166 (BRD9-HiBiT) cell line, endogenously expressing BRD9 with HiBiT fusion tag via CRISPR and ectopically expressing LgBiT tag, was purchased from Promega (Madison, WI, USA). 293T.167 (BRD7-HiBiT) cell line, endogenously expressing BRD7 with HiBiT fusion tag via CRISPR and ectopically expressing LgBiT tag, was purchased from Promega (Madison, WI, USA). 293T.92 (BRD4-HiBiT) cell line, endogenously expressing BRD4 with HiBiT fusion tag via CRISPR and ectopically expressing LgBiT tag, was generated in-house. Cell culture flasks and 384-well microplates were acquired from VWR (Radnor, PA, USA).
BRD9 degradation was determined based on quantification of luminescent signal using Nano-Glo® HiBiT Lytic Assay kit. Test compounds were added to the 384-well plate from a top concentration of 10 μM with 11 points, half log titration in duplicates. 293T.166 cells were added into 384-well plates at a cell density of 10,000 cells per well. The plates were kept at 37° C. with 5% CO2 for 2 hours. BRD7 and BRD4 degradation was similarly determined with 293T.167 cells and 293T.92 cells, respectively. The cells treated in the absence of the test compound were the negative control and the cells without Nano-Glo® HiBiT Lytic reagent were the positive control. After 2-hour incubation, Nano-Glo® HiBiT Lytic Assay reagents were added to the cells. Luminescence was acquired on EnVision® Multilabel Reader (Catalog No. 2104-0010, Perkin Elmer Inc., Dumfries, VA, USA).
This assay evaluates the degradation of BRD9 induced by treatment with Compound 1 or Compound 2 as measured by luminescence using Nano-Glo® HiBiT Lytic Assay System in HEK293 cells CRISPR-edited to endogenously express HiBiT tagged BRD9 and exogenously express LgBiT protein.
Nano-Glo® HiBiT Lytic Assay System was purchased from Promega (Catalog No. N3050, Madison, WI, USA). BRD9-HiBiT HEK293 cells were purchased from Promega (Catalog No. CS302348, Madison, WI, USA). The cells were maintained in Dulbecco's modified Eagle medium (DMEM) without phenol red (Catalog No. 12430112, ThermoFisher Scientific, Waltham, MA, USA) supplemented with 10% fetal bovine serum (FBS) (Catalog No. 16000-044, Gibco, Grand Island, NY, USA) at 37° C. in an atmosphere of 5% CO2 in air. The HiBiT polypeptide tag was introduced into the C-terminus of the endogenous BRD9 locus by CRISPR-Cas9 and the LgBiT protein was introduced via Lentiviral infection to produce the modified HEK293T.166 cell line. The HiBiT polypeptide and LgBiT protein allow reconstitution of NanoBiT enzyme in the cells. The Nano-Glo® HiBiT Lytic Substrate was then added and activated by the NanoBiT enzyme following cell lysis to produce a luminescent signal that is directly proportional to the amount of HiBiT-tagged BRD9.
The HEK293T.166 cells were routinely sub-cultured to maintain cell density between 30-80% confluence, not to exceed 20 passages. Cells were washed with PBS pH 7.4 (Catalog No. 10010049, ThermoFisher Scientific, Waltham, MA, USA), trypsinized for 5 minutes at 37° C., and resuspended in fresh growth media without phenol red. An aliquot was diluted 2× with Trypan Blue solution 0.4% (Catalog No. 15250061, ThermoFisher Scientific, Waltham, MA, USA) and cell count determined. Cell concentration was adjusted with growth media without phenol red to 3.3×10^5 cells/mL.
Compound 1 or Compound 2 was prepared by dissolving neat compounds in DMSO (Catalog No. D8418, Sigma-Aldrich, Inc., St. Louis, MO, USA) to generate 10 mM stock solution and stored at −20° C. […]

[1] = Hygroscopicity by DVS at 25° C.; assay type: physicochemical
Method: Hygroscopicity of Form A and Form N was investigated by DVS at 25° C. […] Form A converted to Form K after the DVS test. Form K is a metastable hydrate. It reverted back to Form A after exposure to ambient condition.
Hygroscopicity of the free base Pattern A* and the urea cocrystal Form P were evaluated by DVS at 25° C.

[2] = Solubility study in aqueous media at 37° C.; details: for Solubility: target 10 mg/5 mL, LOQ: 50 μg/mL
[3] = pH 4.5, 50 mM acetate buffer, 2 h
[4] = pH 4.5, 50 mM acetate buffer, 24 h

- % BRD9 Remaining Relative to Vehicle Control at 2 hr, Mean (BRD9; 0.010 nM): 103.0%
- % BRD9 Remaining Relative to Vehicle Control at 2 hr, Mean (BRD9; 0.032 nM): 95.9%
- % BRD9 Remaining Relative to Vehicle Control at 2 hr, Mean (BRD9; 0.100 nM): 105.0%
- % BRD9 Remaining Relative to Vehicle Control at 2 hr, Mean (BRD9; 0.315 nM): 103.3%
- % BRD9 Remaining Relative to Vehicle Control at 2 hr, Mean (BRD9; 0.997 nM): 105.4%
- % BRD9 Remaining Relative to Vehicle Control at 2 hr, Mean (BRD9; 3.15 nM): 100.2%
- % BRD9 Remaining Relative to Vehicle Control at 2 hr, Mean (BRD9; 10.0 nM): 87.1%
- % BRD9 Remaining Relative to Vehicle Control at 2 hr, Mean (BRD9; 31.7 nM): 75.4%
- % BRD9 Remaining Relative to Vehicle Control at 2 hr, Mean (BRD9; 100 nM): 49.0%
- % BRD9 Remaining Relative to Vehicle Control at 2 hr, Mean (BRD9; 316 nM): 33.1%
- % BRD9 Remaining Relative to Vehicle Control at 2 hr, Mean (BRD9; 999 nM): 39.0%
- DC50 (BRD9; 293T.166 cells): < 100 nM
- Emax (BRD9; BRD9-HiBiT, 293T.166 cells, 2 hours, read-out: Mean Emax (%) ± SD): 33.1 ± 9.92%
- Dmax (BRD9; HEK293T.166 cells, 2-hour treatment, read-out: maximal degradation of BRD9): ~70%
SMILES: COc1cc(-c2cn(C)c(=O)c(C)c2C)cc(OC)c1CN1CC[C@H](N2CCN(c3ccc(N[C@@H]4CCC(=O)NC4=O)cc3F)CC2)C(F)(F)C1 [Compound 2]

- DC50 (BRD9; 293T.166 cells): < 100 nM
SMILES: COc1cc(-c2cn(C)c(=O)c(C)c2C)cc(OC)c1CN1CC[C@@H](N2CCN(c3ccc(N[C@H]4CCC(=O)NC4=O)cc3F)CC2)C(F)(F)C1 [Compound 3]

- DC50 (BRD9; 293T.166 cells): < 100 nM
SMILES: COc1cc(-c2cn(C)c(=O)c(C)c2C)cc(OC)c1CN1CC[C@@H](N2CCN(c3ccc(N[C@@H]4CCC(=O)NC4=O)cc3F)CC2)C(F)(F)C1 [Compound 4]

- DC50 (BRD9; 293T.166 cells): < 100 nM
SMILES: COc1cc(-c2cn(C)c(=O)c(C)c2C)cc(OC)c1CN1CCC(N2CCN(c3ccc(NC4CCC(=O)NC4=O)cc3F)CC2)C(F)(F)C1 (stereo not shown) [Compound 5]

SMILES: COc1cc(-c2cn(C)c(=O)c(C)c2C)cc(OC)c1CN1CC[C@H](N2CCN(c3ccc(N[C@H]4CCC(=O)NC4=O)cc3F)CC2)C(F)(F)C1.NC(N)=O [Urea cocrystal Pattern P]
- XRPD after DVS test [1]: No form change
- water uptake from 40% RH to 90% RH ([1]; DVS): <90% RH, 1.6% water
- water uptake from 40% RH to 95% RH ([1]; DVS): 3.1% water uptake from
- 1st desorp. (%) ([1]; DVS, 0% RH): 0.0%
- 2nd sorp. (%) ([1]; DVS, 0% RH): 0.0%
- 1st desorp. (%) ([1]; DVS, 10% RH): 2.2%
- 2nd sorp. (%) ([1]; DVS, 10% RH): 1.2%
- 1st desorp. (%) ([1]; DVS, 20% RH): 3.1%
- 2nd sorp. (%) ([1]; DVS, 20% RH): 2.8%
- 1st desorp. (%) ([1]; DVS, 30% RH): 3.7%
- 2nd sorp. (%) ([1]; DVS, 30% RH): 3.3%
- 1st desorp. (%) ([1]; DVS, 40% RH): 4.2%
- 1st sorp. (%) ([1]; DVS, 40% RH): 4.0%
- 2nd desorp. (%) ([1]; DVS, 40% RH): 4.2%
- 2nd sorp. (%) ([1]; DVS, 40% RH): 3.7%
- 1st desorp. (%) ([1]; DVS, 50% RH): 4.5%
- 1st sorp. (%) ([1]; DVS, 50% RH): 4.2%
- 2nd desorp. (%) ([1]; DVS, 50% RH): 4.5%
- 2nd sorp. (%) ([1]; DVS, 50% RH): 4.1%
- 1st desorp. (%) ([1]; DVS, 60% RH): 4.7%
- 1st sorp. (%) ([1]; DVS, 60% RH): 4.4%
- 2nd desorp. (%) ([1]; DVS, 60% RH): 4.7%
- 2nd sorp. (%) ([1]; DVS, 60% RH): 4.4%
- 1st desorp. (%) ([1]; DVS, 70% RH): 5.0%
- 1st sorp. (%) ([1]; DVS, 70% RH): 4.7%
- 2nd desorp. (%) ([1]; DVS, 70% RH): 5.0%
- 2nd sorp. (%) ([1]; DVS, 70% RH): 4.8%
- 1st desorp. (%) ([1]; DVS, 80% RH): 5.2%
- 1st sorp. (%) ([1]; DVS, 80% RH): 5.1%
- 2nd desorp. (%) ([1]; DVS, 80% RH): 5.3%
- 2nd sorp. (%) ([1]; DVS, 80% RH): 5.1%
- 1st desorp. (%) ([1]; DVS, 90% RH): 5.8%
- 1st sorp. (%) ([1]; DVS, 90% RH): 5.6%
- 2nd desorp. (%) ([1]; DVS, 90% RH): 5.8%
- 2nd sorp. (%) ([1]; DVS, 90% RH): 5.6%
- 1st desorp. (%) ([1]; DVS, 95% RH): 7.1%
- 1st sorp. (%) ([1]; DVS, 95% RH): 7.1%
- 2nd desorp. (%) ([1]; DVS, 95% RH): 7.3%
- 2nd sorp. (%) ([1]; DVS, 95% RH): 7.3%
- pH ([2]; FaSSIF-v1, pH 6.5, 2 h): pH: 6.5
- Solubility ([2]; FaSSIF-v1, pH 6.5, 2 h): <LOQ
- pH ([2]; FaSSIF-v1, pH 6.5, 24 h): pH: 6.5
- Solubility ([2]; FaSSIF-v1, pH 6.5, 24 h): <LOQ
- pH ([2]; FeSSIF-v1, pH 5.0, 2 h): pH: 5.0
- Solubility ([2]; FeSSIF-v1, pH 5.0, 2 h): 0.28 mg/mL
- pH ([2]; FeSSIF-v1, pH 5.0, 24 h): pH: 4.9
- Solubility ([2]; FeSSIF-v1, pH 5.0, 24 h): 0.34 mg/mL
- pH ([2]; SGF, pH 1.8, 2 h): pH: 2.4
- Solubility ([2]; SGF, pH 1.8, 2 h): >2 mg/mL
- pH ([2]; SGF, pH 1.8, 24 h): pH: 2.4
- Solubility ([2]; SGF, pH 1.8, 24 h): >2 mg/mL
- pH ([2]; pH 1.0 (0.1N HCl), 2 h): pH: 1.0
- Solubility ([2]; pH 1.0 (0.1N HCl), 2 h): >2 mg/mL
- pH ([2]; pH 1.0 (0.1N HCl), 24 h): pH: 1.0
- Solubility ([2]; pH 1.0 (0.1N HCl), 24 h): >2 mg/mL
- pH [2, 3]: pH: 4.6
- Solubility [2, 3]: 0.24 mg/mL
- pH [2, 4]: pH: 4.5
- Solubility [2, 4]: 0.14 mg/mL
